According to US11007269B2, “P53 degradation inducing molecule and pharmaceutical composition” (Tokyo University of Science Foundation, priority 2016, dated 2021):
Non-standard residues stand in square brackets, D forms with d. Residues, ends and D or L forms follow the SMILES beside them. Nle = CCCC[C@H](N)C(=O)O

What was measured:
[1] = test system: ecDHFR protein (fusion protein of an ecDHFR protein and GFP through a HA tag); test: Western blot of degradation of forcibly expressed ecDHFR protein in HeLa cells; assay type: cell-based, human
20S proteasome = molecular target: T1, 20S proteasome (Homo sapiens, UniProt P28072+P28074+Q99436); test: Affinity with a proteasome, evaluated from the 20S proteasome activity assay; assay type: biochemical; settings: concluded from the concentration dependent inhibitory activity
T1 construct: purchased Bioscience
Description: (§1) In Reference Example 2, the proteasome inhibitory activity of TMP-CANDDY_DMT and the affinity of TMP-CANDDY_DMT with a proteasome were evaluated. As a positive control, MG-132 as a proteasome inhibitor was used.
(§2) For evaluation, 20S Proteasome StressXpress™ Assay Kit Gold (Bioscience) was used. AMC was measured by using Multi-Detection Microplate Reader (Synergy HT, BIO-TEK). The AMC was produced by cleaving the C-terminus of an AMC-binding proteasome fluorescence substrate specific to β subunits of a 20S proteasome, including β5 (chymotrypsin-like activity), β2 (trypsin-like activity), and β1 (caspase-like activity). The measuring wavelengths were 360 nm for excitation light (Ex.), and 460 nm for fluorescence (Em.).
(§3) In Reference Example 6, as in Reference Example 2, a proteasome inhibitory activity of TMP-CANDDY_ALLN and an affinity of TMP-CANDDY_ALLN with a proteasome were evaluated.

[2] = test system: ecDHFR protein (fusion protein of an ecDHFR protein and GFP through a HA tag); assay type: cell-based, human; settings: HeLa cells, 24 hours after addition, vs DMSO control
[3] = molecular target: T2, catalytic subunit β5 of the proteasome (chymotrypsin-like activity) (Homo sapiens, UniProt P28074); test: 20S Proteasome StressXpress Assay Kit, AMC substrate, β5; assay type: biochemical
T2 construct: purchased Bioscience
Description: as §1, §2, §3

[4] = molecular target: T3, catalytic subunit β1 of a proteasome (caspase-like activity) (Homo sapiens, UniProt P28072); test: 20S Proteasome StressXpress Assay Kit, AMC substrate, β1; assay type: biochemical
T3 construct: purchased Bioscience
Description: as §1, §2, §3

[5] = molecular target: T4, catalytic subunit β2 of the proteasome (trypsin-like activity) (Homo sapiens, UniProt Q99436); test: 20S Proteasome StressXpress Assay Kit, AMC substrate, β2; assay type: biochemical
T4 construct: purchased Bioscience
Description: as §1, §2, §3

[6] = molecular target: T3, catalytic subunit β1 of a proteasome (caspase-like activity); settings: reported by Kaiser et al., Chem. Bio. Chem., 2004; cited from earlier work
[7] = test system: senescence-associated acidic β-galactosidase (SA-β-gal) inducing TIG3 cells; test: FACS analysis of SA-β-gal in doxorubicin senescence-induced TIG3 cells (anti-aging action); assay type: cell-based, human; settings: doxorubicin 150 nM alone vs no doxorubicin
Description: In Example 5, an anti-aging action in a senescence-associated acidic β-galactosidase (SA-β-gal) inducing TIG3 cells (human embryonic fibroblast) in which TIBC-CANDDY_MLN had been added was evaluated by FACS analysis.
TIG3 cells as normal cells were seeded in a 24-well plate at a cell density of 8×10^4 cells/well, and then cultured under conditions of 37° C. and 5 vol % CO2 for 16 hours.
After 16 hours from cell seeding, doxorubicin was added to each well at 150 nM/well to induce cellular senescence. As a medium, a serum-free medium (37° C.) in which 1 mass % L-glutamine solution (Sigma-Aldrich) was added to D-MEM (high D-glucose, phenol red, sodium pyruvate (Wako Pure Chemical Industries, Ltd.)) was used. It is noted that the L-glutamine solution was added immediately before use. After the addition of doxorubicin, culture was performed under conditions of 37° C. and 5 vol % CO2 for 24 hours.
After 24 hours from induction of senescence, TIBC-CANDDY_MLN was added to TIG3 cells as follows. As a medium, a serum-free medium (37° C.) in which 1 mass % L-glutamine solution (Sigma-Aldrich) was added to D-MEM (high D-glucose, phenol red, sodium pyruvate (Wako Pure Chemical Industries, Ltd.)) was used. It is noted that the L-glutamine solution was added immediately before use. A DMSO solution containing TIBC-CANDDY_MLN was mixed with the medium so that the concentration of DMSO was 1 vol %, and added to each well at 500 μL/well, and cultured under conditions of 37° C. and 5 vol % CO2 for 48 hours. As a control, DMSO was used.
For quantification of SA-β-gal as a senescence marker, a commercially available kit (Cellular Senescence Detection Kit-SPiDER-βGal (DOJINDO LABORATORIES)) was used. […]
A BD FACSCanto™ II (BD Biosciences) was used for flow cytometry to detect SA-β-gal labeled with FITC. […] A histogram of the FITC strength was created by an analysis software FlowJo™ (TOMY Digital Biology Co., Ltd.), and the senescence suppressing action by TIBC-CANDDY_MLN was evaluated from a shift in the histogram.

| Compound | amount of the ecDHFR protein (Western blot) ([1]; 24 hours after addition, cycloheximide 50 μg/mL added at 12 hours) | degradation of the ecDHFR protein when bortezomib is added as well ([1]; both TMP-CANDDY_DMT and bortezomib added, compared with TMP-CANDDY_DMT alone) | affinity with a proteasome (20S proteasome) | degradation (knockdown) of the ecDHFR protein (shift of GFP/DsRed graph, FACS) [2] | concentration dependence of inhibitory activity against β5 [3] | proteasome inhibitory activity against β5 compared with the reference proteasome inhibitor [3] | concentration dependence of inhibitory activity against β1 [4] | proteasome inhibitory activity against β1 compared with the reference proteasome inhibitor [4] | concentration dependence of inhibitory activity against β2 [5] | proteasome inhibitory activity against β2 compared with the reference proteasome inhibitor [5] | inhibition of β1 [6] | shift to SA-β-gal (senescence marker) positive (FACS histogram) [7] |
| --- | --- | --- | --- | --- | --- | --- | --- | --- | --- | --- | --- | --- |
| COc1nc(NCCCCCCNC(=O)COc2c(OC)cc(Cc3cnc(N)nc3N)cc2OC)nc(OC)n1 [TMP-CANDDY_DMT] | reduced | degradation of the ecDHFR protein was inhibited | moderate affinity | degradation of the ecDHFR protein was induced | increased in a concentration dependent manner | significantly lower proteasome inhibitory activity as compared with MG-132 | increased in a concentration dependent manner | significantly lower proteasome inhibitory activity as compared with MG-132 | increased in a concentration dependent manner | significantly lower proteasome inhibitory activity as compared with MG-132 |  |  |
| CCCC[C@H](NC(=O)[C@H](CC(C)C)NC(=O)[C@H](CC(C)C)NC(C)=O)C(=O)NCCCCCCNC(=O)COc1c(OC)cc(Cc2cnc(N)nc2N)cc1OC [TMP-CANDDY_ALLN] |  |  | had an affinity with a proteasome | degradation of the ecDHFR protein was induced | in a concentration dependent manner | the inhibitory activity was weakened | in a concentration dependent manner |  | in a concentration dependent manner | the inhibitory activity was weakened |  |  |
| CCCC[C@@H](C=O)NC(=O)[C@H](CC(C)C)NC(=O)[C@H](CC(C)C)NC(C)=O [ALLN, Calpain Inhibitor I] (Ac-Leu-Leu-[Nle]-aldehyde) |  |  |  |  |  |  |  |  |  |  | not inhibited |  |
| COc1cccc2c1C(=O)c1c(O)c3c(c(O)c1C2=O)C[C@@](O)(C(=O)CO)C[C@@H]3O[C@H]1C[C@H](N)[C@H](O)[C@H](C)O1 [doxorubicin, reference compound] |  |  |  |  |  |  |  |  |  |  |  | a shift to SA-β-gal (senescence marker) positive was observed |
